Consider 21 compounds from patent US10399948B2, “Negative allosteric modulators of metabotropic glutamate receptor 3” (Vanderbilt University, priority 2015, dated 2019).

Experiment [1] concerns the target rat mGlu3 (Rattus norvegicus (Rat), UniProt P31422). Description: mGlu3 Ca2+ flux assay. Particulars: for IC50: NAM, glutamate EC80, >10,000 = decrease without plateau, >30,000 = no measurable activity; for remaining activity at 30 µM: response at 30 μM test compound as percentage of maximal response to glutamate, read-out: rat mGlu3 Glu max (%). The experiment is classed as cell-based. The protocol:
Gα15/TREx cells stably expressing rat mGlu3 were plated in black-walled, clear-bottomed, poly-D-lysine coated 384-well plates in 20 μL of assay medium (DMEM containing 10% dialyzed FBS, 20 mM HEPES, 25 ng/mL tetracycline, 100 units/mL penicillin/streptomycin plus 250 ng/mL Fungizone, and 1 mM sodium pyruvate) at a density of 15K cells/well. The cells were grown overnight at 37° C. in the presence of 5% CO2. […] Dye was removed, 20 μL of assay buffer was added, and the plate was incubated for 10 minutes at room temperature.
(§1) Ca^2+ flux was measured using the Functional Drug Screening System (FDSS7000, Hamamatsu, Japan). After establishment of a fluorescence baseline for about 3 seconds, the compounds of the present invention were added to the cells, and the response in cells was measured. 2.3 minutes later an EC20 concentration of the mGlu3 receptor agonist glutamate was added to the cells, and the response of the cells was measured for 1.9 minutes; an EC80 concentration of agonist was added and readings taken for an additional 1.7 minutes. All test compounds were dissolved and diluted to a concentration of 10 mM in 100% DMSO. Compounds were then serially diluted 1:3 in DMSO into 10 point concentration response curves, transferred to daughter plates, and further diluted into assay buffer to a 2× stock. Calcium fluorescence measures were recorded as fold over basal fluorescence; raw data was then normalized to the maximal response to glutamate.
(§2) The raw data file containing all time points was used as the data source in the analysis template. This was saved by the FDSS as a tab-delimited text file. Data were normalized using a static ratio function (F/F0) for each measurement of the total 360 values per well divided by each well's initial value. Data were then reduced to peak amplitudes (Max−Initial Min) using a time range that starts approximately 3 seconds prior to the glutamate EC80 addition and continues for approximately 90 seconds. This is sufficient time to capture the peak amplitude of the cellular calcium response. Individual amplitudes were expressed as % EMax by multiplying each amplitude by 100 and then dividing the product by the mean of the amplitudes derived from the glutamate ECMax-treated wells. EC50 values for test compounds were generated by fitting the normalized values versus the log of the test compound concentration (in mol/L) using a 4 parameter logistic equation where none of the parameters were fixed. Each of the three values collected at each concentration of test compound were weighted evenly.

In experiment [2] the target is rat mGlu2 (Rattus norvegicus (Rat), UniProt P31421). The experiment in a line: mGlu2 Ca2+ flux assay. The experiment is classed as cell-based. Particulars: NAM, glutamate EC80; >30,000 = no measurable activity. On the procedure:
Gα15 HEK293 cells stably expressing rat mGlu2 were plated in black-walled, clear-bottomed, poly-D-lysine coated 384-well plates in 20 μL of assay medium (DMEM containing 10% dialyzed FBS, 20 mM HEPES, and 1 mM sodium pyruvate) at a density of 12K cells/well. The cells were grown overnight at 37° C. in the presence of 5% CO2. The next day, medium was removed and the cells incubated with 20 μL of […] Fluo-4, AM prepared as a 2.3 mM stock in DMSO and mixed in a 1:1 ratio with 10% (w/v) pluronic acid F-127 and diluted in assay buffer (Hank's balanced salt solution, 20 mM HEPES, and 2.5 mM probenecid) for 45 minutes at 37° C. Dye was removed, 20 μL of assay buffer was added, and the plate was incubated for 5 minutes at room temperature.
as §1, with “mGlu2” for “mGlu3”
as §2, with “ECMax” for “EMax”, “IC50” for “EC50”
(A change in cytosolic calcium serves as a functional read-out for many receptors and channels.)

Sequence of rat mGlu3 (P31422 23-879): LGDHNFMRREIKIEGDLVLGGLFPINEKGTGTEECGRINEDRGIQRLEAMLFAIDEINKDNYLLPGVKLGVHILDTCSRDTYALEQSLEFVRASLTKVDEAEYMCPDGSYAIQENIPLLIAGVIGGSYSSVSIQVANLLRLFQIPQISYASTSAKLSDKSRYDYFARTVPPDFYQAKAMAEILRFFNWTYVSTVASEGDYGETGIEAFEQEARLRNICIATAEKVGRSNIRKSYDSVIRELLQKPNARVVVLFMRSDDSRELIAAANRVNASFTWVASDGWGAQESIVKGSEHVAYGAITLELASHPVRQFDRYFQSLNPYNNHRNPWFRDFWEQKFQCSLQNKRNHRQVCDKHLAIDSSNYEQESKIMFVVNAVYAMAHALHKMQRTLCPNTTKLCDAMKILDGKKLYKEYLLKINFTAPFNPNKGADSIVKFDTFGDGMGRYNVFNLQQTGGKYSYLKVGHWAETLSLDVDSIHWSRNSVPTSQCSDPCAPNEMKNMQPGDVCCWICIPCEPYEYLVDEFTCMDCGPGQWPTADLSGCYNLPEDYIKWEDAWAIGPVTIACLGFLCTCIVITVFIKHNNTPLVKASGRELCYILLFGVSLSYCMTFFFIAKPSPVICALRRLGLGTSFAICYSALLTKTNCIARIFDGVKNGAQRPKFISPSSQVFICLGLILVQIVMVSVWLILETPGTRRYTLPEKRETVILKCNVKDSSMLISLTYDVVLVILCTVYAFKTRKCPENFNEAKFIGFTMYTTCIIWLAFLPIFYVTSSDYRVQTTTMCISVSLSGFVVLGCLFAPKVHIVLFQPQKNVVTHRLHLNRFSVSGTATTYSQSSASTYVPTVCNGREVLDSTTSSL
Sequence of rat mGlu2 (P31421 19-872): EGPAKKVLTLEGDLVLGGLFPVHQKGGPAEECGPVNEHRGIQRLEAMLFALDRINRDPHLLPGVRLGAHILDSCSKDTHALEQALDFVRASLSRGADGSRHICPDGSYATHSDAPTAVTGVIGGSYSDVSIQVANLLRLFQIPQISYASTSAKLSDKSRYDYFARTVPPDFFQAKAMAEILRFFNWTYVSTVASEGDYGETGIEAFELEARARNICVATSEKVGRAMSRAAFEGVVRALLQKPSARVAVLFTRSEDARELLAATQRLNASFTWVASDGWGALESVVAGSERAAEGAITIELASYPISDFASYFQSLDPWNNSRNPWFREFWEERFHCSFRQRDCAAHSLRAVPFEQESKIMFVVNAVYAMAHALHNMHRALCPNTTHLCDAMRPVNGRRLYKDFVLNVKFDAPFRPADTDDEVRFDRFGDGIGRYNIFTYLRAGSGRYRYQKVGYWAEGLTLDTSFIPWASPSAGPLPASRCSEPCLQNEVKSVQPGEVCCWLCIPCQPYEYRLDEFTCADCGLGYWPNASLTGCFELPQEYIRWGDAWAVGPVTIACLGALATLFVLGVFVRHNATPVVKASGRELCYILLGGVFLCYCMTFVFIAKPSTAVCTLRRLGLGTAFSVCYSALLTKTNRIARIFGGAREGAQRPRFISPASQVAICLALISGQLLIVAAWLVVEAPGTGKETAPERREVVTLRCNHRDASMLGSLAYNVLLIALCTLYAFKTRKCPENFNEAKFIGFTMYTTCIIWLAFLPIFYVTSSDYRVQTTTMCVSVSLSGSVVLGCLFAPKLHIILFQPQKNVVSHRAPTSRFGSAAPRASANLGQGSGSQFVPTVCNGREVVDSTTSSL

Turning to `N#Cc1cncc(-n2ccc(OCCOc3ccccc3)cc2=O)c1` [Compound 26, 2-oxo-4-(2-phenoxyethoxy)-2H-[1,3′-bipyridine]-5′-carbonitrile], in experiment [1], inhibition was half-maximal at 3.41 µM (IC50) and the remaining activity at 30 µM is -5.24%. The IC50 (usually the point on the concentration scale where inhibition reaches its midpoint) in experiment [2] was above 30 µM.
In the same order, the values of `O=c1cc(OCCOc2ccccc2)ccn1-c1cncc(F)c1` [Compound 27, 5′-fluoro-4-(2-phenoxyethoxy)-2H-[1,3′-bipyridin]-2-one] are 1.87 µM, 4.56% and above 30 µM.
The like results for `O=c1cc(OCCOc2ccccc2)cnn1-c1ccc(F)cc1` [Compound 29, 2-(4-Fluorophenyl)-5-(2-phenoxyethoxy)pyridazin-3(2H)-one] were, in that order, 3.87 µM, 5.86% and above 30 µM.
Turning to `O=c1cc(OCCOc2ccc(F)cc2F)ccn1-c1ccc(F)cc1` [Compound 34, 4-(2-(2,4-difluorophenoxy)ethoxy)-1-(4-fluorophenyl)pyridin-2(1H)-one], in experiment [1], the IC50 was determined as 1.45 µM and the remaining activity at 30 µM is 1.32%. The compound further yielded an IC50 in experiment [2] above 30 µM.
The like results for `O=c1cc(OCCOc2cc(F)ccc2F)ccn1-c1ccc(F)cc1` [Compound 35, 4-(2-(2,5-difluorophenoxy)ethoxy)-1-(4-fluorophenyl)pyridin-2(1H)-one] were, in that order, 1.46 µM, 2.27% and above 30 µM.
The like results for `O=c1cc(OCCOc2c(F)cccc2F)ccn1-c1ccc(F)cc1` [Compound 36, 4-(2-(2,6-difluorophenoxy)ethoxy)-1-(4-fluorophenyl)pyridin-2(1H)-one] were, in that order, 3.18 µM, -1.16% and above 30 µM.
In the same order, the values of `O=c1cc(OCCOc2ccccc2Cl)ccn1-c1ccc(F)cc1` [Compound 37, 4-(2-(2-chlorophenoxy)ethoxy)-1-(4-fluorophenyl)pyridin-2(1H)-one] are 1.84 µM, 2.05% and above 30 µM.
For `O=c1cc(OCCOc2cccc(Cl)c2)ccn1-c1ccc(F)cc1` [Compound 38, 4-(2-(3-chlorophenoxy)ethoxy)-1-(4-fluorophenyl)pyridin-2(1H)-one], in experiment [1], it took 0.98 µM to reach half-maximal inhibition (IC50) and the remaining activity at 30 µM is 0.85%. In experiment [2], this compound displayed an IC50 above 30 µM.
Regarding `O=c1cc(OCCOc2cccnc2F)ccn1-c1ccc(F)cc1` [Compound 40, 1-(4-fluorophenyl)-4-(2-((2-fluoropyridin-3-yl)oxy)ethoxy)pyridin-2(1H)-one], in experiment [1], the half-inhibitory concentration (IC50) came out at 4.74 µM and the remaining activity at 30 µM is -4.22%. Moreover, the IC50 in experiment [2] was above 30 µM.
In the same order, the values of `N#Cc1ccc(OCCOc2ccn(-c3ccc(F)cc3)c(=O)c2)cc1` [Compound 42, 4-(2-((1-(4-fluorophenyl)-2-oxo-1,2-dihydropyridin-4-yl)oxy)ethoxy)benzonitrile] are 1.13 µM, 0.74% and above 30 µM.
In the same order, the values of `COCc1ccc(OCCOc2ccn(-c3ccc(F)cc3)c(=O)c2)cc1` [Compound 43, 1-(4-fluorophenyl)-4-(2-(4-(methoxymethyl)phenoxy)ethoxy)pyridin-2(1H)-one] are above 10 µM, 37.3% and above 30 µM.
The like results for `O=c1cc(OCCOc2cccnc2)ccn1-c1ccc(F)cc1` [Compound 44, 1-(4-fluorophenyl)-4-(2-(pyridin-3-yloxy)ethoxy)pyridin-2(1H)-one] were, in that order, 10 µM, 1.83% and above 30 µM.
Consider `O=c1cc(OCCOc2cncc(Cl)c2)ccn1-c1ccc(F)cc1` [Compound 46, 4-(2-((5-chloropyridin-3-yl)oxy)ethoxy)-1-(4-fluorophenyl)pyridin-2(1H)-one], for which, in experiment [1], the 50% inhibitory concentration (IC50) was found to be 2.79 µM and the remaining activity at 30 µM amounted to 0.41%. In experiment [2], the IC50 was above 30 µM.
In the same order, the values of `O=c1cc(OCCOc2cnccc2Cl)ccn1-c1ccc(F)cc1` [Compound 47, 4-(2-((4-chloropyridin-3-yl)oxy)ethoxy)-1-(4-fluorophenyl)pyridin-2(1H)-one] are above 10 µM, 36.7% and above 30 µM.
In the case of `O=c1cc(OCCOc2cccnc2Cl)ccn1-c1ccc(F)cc1` [Compound 48, 4-(2-((2-chloropyridin-3-yl)oxy)ethoxy)-1-(4-fluorophenyl)pyridin-2(1H)-one], in experiment [1], the IC50 was 5.56 µM and the remaining activity at 30 µM was -2.79%. The same compound had a half-inhibitory concentration (IC50) in experiment [2] above 30 µM.
As to `O=c1cc(OCCOc2ccccn2)ccn1-c1ccc(F)cc1` [Compound 50, 1-(4-fluorophenyl)-4-(2-(pyridin-2-yloxy)ethoxy)pyridin-2(1H)-one], in experiment [1], the midpoint of inhibition, the IC50, lay at 1.94 µM and the remaining activity at 30 µM was -0.52%. This compound also came in with an IC50 in experiment [2] above 30 µM.
In the same order, the values of `O=c1cc(OCCOc2ncccc2F)ccn1-c1ccc(F)cc1` [Compound 51, 1-(4-fluorophenyl)-4-(2-((3-fluoropyridin-2-yl)oxy)ethoxy)pyridin-2(1H)-one] are 1.28 µM, 0.2% and above 30 µM.
The like results for `O=c1cc(OCCOc2ccc(F)cn2)ccn1-c1ccc(F)cc1` [Compound 52, 1-(4-fluorophenyl)-4-(2-((5-fluoropyridin-2-yl)oxy)ethoxy)pyridin-2(1H)-one] were, in that order, 1.06 µM, 0.26% and above 30 µM.
Regarding `O=c1cc(OCCOc2cccc(Cl)n2)ccn1-c1ccc(F)cc1` [Compound 53, 4-(2-((6-chloropyridin-2-yl)oxy)ethoxy)-1-(4-fluorophenyl)pyridin-2(1H)-one], in experiment [1], the IC50 is 4.27 µM and the remaining activity at 30 µM is -1.66%. Besides, the concentration for half-maximal inhibition (IC50) in experiment [2] was above 30 µM.
In the same order, the values of `N#Cc1cccnc1OCCOc1ccn(-c2ccc(F)cc2)c(=O)c1` [Compound 56, 2-(2-((1-(4-fluorophenyl)-2-oxo-1,2-dihydropyridin-4-yl)oxy)ethoxy)nicotinonitrile] are above 10 µM, 18% and above 30 µM.
Regarding `N#Cc1ccc(OCCOc2ccn(-c3ccc(F)cc3)c(=O)c2)nc1` [Compound 58, 6-(2-((1-(4-fluorophenyl)-2-oxo-1,2-dihydropyridin-4-yl)oxy)ethoxy)nicotinonitrile], in experiment [1], the IC50 came out at 1.38 µM and the remaining activity at 30 µM was found to be 1.06%. Also, the IC50 in experiment [2] was above 30 µM.
